In article PMC8896804 (Science Advances, 2022):

Columns and labels:
S. pusilla = assay: Survival after hyper-osmotic salinity exposure; format: in vivo, Stylochoplana pusilla; conditions: 10^−6 M OVTA, n = 45, Fig. 3B
[1] = test system: platytocin receptor (PTR); format: cell-based; conditions: COS-7 cells transfected with ptr, cotreated with platytocin 90 min at 37°C; global Schild analysis, slope of 1; mean ± SEM, n = 4

[d(CH2)5^1, Tyr(Me)^2, Thr^4, Orn^8, Tyr^9-NH2]–vasotocin [OVTA]
hyperosmolality (70 ppt) resistance (S. pusilla): Hyperosmolality (70 ppt) resistance is blocked by 10^−6 M OVTA | pA2, block of platytocin-mediated IP1 accumulation [1]: 6.99 ± 0.27
